In patent publication US12370235B2, “Synthetic, non-natural antimicrobial peptides inspired by Staphylococcus auricularis delta toxin” (University of Saskatchewan, priority 2021, dated 2025):
Ends that are not written are not given here.

Tests used:
[1] = Circular dichroism spectroscopy; type: physicochemical; details: CD, 50% (v/v) TFE
Description: The δ-toxins and the PSMs are characterized as α-helical peptides that form amyloid fibers^48. Although the propensity of individual peptides to form amyloids is correlated to their cytotoxicity^49, the amyloid form is not directly implicated in cell membrane disruption^50. […] CD spectroscopy was used to investigate the secondary structure of a subset of peptides within the collection (FIG. 4A, Table 5). The STIP variants adopted α-helical forms in 50% (v/v) trifluoroethanol (TFE), though unlike the full-length S. auricularis δ-toxin, they were unstructured in water. […] Specifically, peptides characterized by the greatest and least α-helical content in TFE had MICs above the highest tested threshold.
Circular dichroism spectroscopy. Peptides were dissolved in water at concentrations between 0.3 and 0.5 mg/mL. CD spectra were recorded on an Applied Photophysics Chirascan Plus CD spectrophotometer at room temperature in a 0.1 cm path-length quartz cuvette. Spectra were recorded from 180 to 260 nm.

C. albicans MYA-2876 = assay: MIC, YPD broth; type: cell-based, Candida albicans; details: Table 8
Procedure, shortened: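 Minimum inhibitory concentrations against Candida albicans were determined in YPD broth (10 g/L yeast extract, 20 g/L peptone, 20 g/L dextrose) using peptides of 95% purity. A 180 μl volume of diluted yeast was combined with 20 μl of peptide in a 2-fold dilution series in 96-well plates, with sterile water as control, then incubated standing overnight at 37° C.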

[2] = tested on: Saccharomyces cerevisiae AR 400; assay: MIC, YPD broth, CDC and FDA AR Candida isolate panel; type: cell-based; details: Table 9 top part: titrations from 1.56 to 100 μg/mL
Procedure, shortened: (§1)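 Growth inhibition by peptides (95% pure) is scored after standing overnight incubation at 37° C. Cells at an optical density of […] are exposed to a doubling dilution series of peptide.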

Candida krusei AR 397 = assay: as above; type: cell-based; details: Table 9 top part: titrations from 1.56 to 100 μg/mL
Procedure, shortened: as §1

[3] = tested on: Saccharomyces cerevisiae AR 399; assay: as above; type: cell-based; details: Table 9 top part: titrations from 1.56 to 100 μg/mL
Procedure, shortened: as §1

[4] = tested on: Candida duobushaemulonii AR 392; assay: as above; type: cell-based; details: Table 9 top part: titrations from 1.56 to 100 μg/mL
Procedure, shortened: as §1

Kodamae ohmeri AR 396 = assay: as above; type: cell-based; details: Table 9 top part: titrations from 1.56 to 100 μg/mL
Procedure, shortened: as §1

[5] = tested on: S. aureus ATCC BAA-2094 (MRSA SCCmec type V); assay: MIC, broth dilution; type: cell-based, Staphylococcus aureus; details: Table 5; STIP3 variants, highest concentration 100 μg/mL
Procedure, shortened: (§2)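 Peptides (95% purity) were serially diluted 2-fold and mixed with bacteria diluted to OD 6×10^−4 in cation-adjusted Mueller Hinton broth. Standing cultures were incubated overnight at 37° C. MIC was the lowest peptide concentration with no observed growth.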

[6] = tested on: S. aureus ATCC BAA-41 (MRSA SCCmec type II); assay: MIC, broth dilution; type: cell-based, Staphylococcus aureus; details: Table 5; STIP3 variants, highest concentration 100 μg/mL
Procedure, shortened: as §2

[7] = tested on: S. aureus ATCC BAA-42 (MRSA SCCmec type VI); assay: MIC, broth dilution; type: cell-based, Staphylococcus aureus; details: Table 5; STIP3 variants, highest concentration 100 μg/mL
Procedure, shortened: as §2

[8] = tested on: S. aureus ATCC BAA-1683 (MRSA SCCmec type IV); assay: MIC, broth dilution; type: cell-based, Staphylococcus aureus; details: Table 5; STIP3 variants, highest concentration 100 μg/mL
Procedure, shortened: as §2

S. aureus ATCC 29213 [9] = assay: MIC, broth dilution; type: cell-based, Staphylococcus aureus; details: for MIC (μg/mL) S. aureus: liquid broth
Procedure, shortened: as §2

[10] = tested on: S. aureus ATCC BAA-2313 (MRSA SCCmec type XI); assay: MIC, broth dilution; type: cell-based, Staphylococcus aureus; details: Table 5; STIP3 variants, highest concentration 100 μg/mL
Procedure, shortened: as §2

[11] = tested on: S. aureus ATCC BAA-44 (MRSA SCCmec type I); assay: MIC, broth dilution; type: cell-based, Staphylococcus aureus; details: Table 5; STIP3 variants, highest concentration 100 μg/mL
Procedure, shortened: as §2

[12] = tested on: S. aureus ATCC 33592 (MRSA SCCmec type III); assay: MIC, broth dilution; type: cell-based, Staphylococcus aureus; details: Table 5; STIP3 variants, highest concentration 100 μg/mL
Procedure, shortened: as §2

M. luteus ATCC 4698 = assay: MIC, broth dilution; type: cell-based, Micrococcus luteus; details: Table 4; liquid broth
Method: MIC determination. MICs were measured using peptides with 95% purity. For bacterial studies, cation-adjusted Mueller Hinton (MH) broth was used as the growth medium whereas Yeast Peptone Dextrose (YPD; 10 g/L yeast extract, 20 g/L peptone, 20 g/L dextrose) was used for Candida spp. and other yeast. Microorganisms were diluted to an optical density of […] in MH or YPD broth and a 180 μl volume was mixed with 20 μl of peptide arrayed as a 2-fold dilution series in a flat-bottom 96-well microtitre plate. A control was performed using 20 μl of sterile water. Plates were incubated as standing cultures overnight at 37° C.
Determination of minimum inhibitory concentrations. The MICs were measured for bioactive peptides identified from the initial screen. For bacterial studies, cation-adjusted Mueller Hinton (MH) broth was used as the growth medium whereas YPD was used for C. albicans. Bacterial cultures were diluted to a OD value of 6×10^−4 in MH broth and a 180 μl volume was mixed with 20 μl of peptide arrayed as 2-fold dilution series in a 96-well plate. For the positive control, 20 μl of sterile water was used. Plates were incubated as standing cultures overnight at 37° C. The lowest peptide concentration that resulted no observed microbial growth after an overnight treatment was defined as the MIC.

S. aureus ATCC 29213 [13] = assay: Spot-on-lawn assay; type: cell-based, Staphylococcus aureus; details: 50 μg peptide spotted on agar
Method: Spot-on-lawn assay. For the initial screen, peptides of ≥70% purity were used. Each peptide was resuspended in sterile water to a concentration of 10 mg/ml. To determine antimicrobial activities a spot-on-lawn assay was performed. M. luteus and S. aureus were used as indicator strains. To prepare test organisms, the optical density (OD) of overnight cultures were measured and the organisms were diluted to an initial OD of 0.05 in soft nutrient agar (0.4% w/v) at 50° C. Next, 3 mL of soft agar containing a test organism was overlaid on a solid 1.5% w/v nutrient agar plate (LB). A total of 50 μg of each peptide was spotted on the inoculated surface and plates were incubated for 16 to 48 h before being examined for zones of inhibition.
(§3) SspA protease treatment. SspA protease was resuspended at 2 mg/mL in 100 mM HEPES, pH 7.8. Proteolysis was achieved by incubation of 50 μg PSMs at 37° C. for ˜5 hours with 0.2 mg/mL SspA. The antimicrobial activity of the proteolytic products were assayed by spotting a 5 μL (˜45 μg) from each treated peptide on each test microorganism as described above.

[14] = tested on: Mannheimia haemolytica ATCC 33393; assay: MIC, broth dilution; type: cell-based
Procedure, shortened: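 Peptides (95% purity) in 2-fold dilution series were mixed with M. haemolytica diluted to OD 6×10^−4 in cation-adjusted Mueller Hinton broth and incubated standing overnight at 37 °C. MIC was the lowest concentration with no visible growth.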

SspA protease = SspA protease (Staphylococcus aureus, UniProt P0C1U8); assay: SspA protease treatment, LC/MS analysis; type: in vitro ADME; details: in vitro, 37° C., ˜5 hours
Sequence of SspA protease (P0C1U8 69-336): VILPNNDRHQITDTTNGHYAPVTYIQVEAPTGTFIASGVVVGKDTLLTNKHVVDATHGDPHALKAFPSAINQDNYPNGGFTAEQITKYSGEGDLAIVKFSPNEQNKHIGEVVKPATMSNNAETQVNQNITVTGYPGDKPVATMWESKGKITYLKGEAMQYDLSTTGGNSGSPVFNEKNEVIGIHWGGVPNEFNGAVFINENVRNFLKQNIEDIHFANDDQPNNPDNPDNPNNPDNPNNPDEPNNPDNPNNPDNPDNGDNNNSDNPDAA
Method: as §3
HPLC/MS analysis. High performance liquid chromatography coupled to mass spectrometry (HPLC-MS) was conducted to assess the proteolytic cleavage of synthetic PSMs by the SspA protease, as described above. Both treated samples and untreated controls were incubated at 37° C. for 5 hours, and then frozen until HPLC/MS analysis. An Agilent Infinity II 1260 HPLC outfitted with a Phenomenex Lune C5 column (4.6×150 mm, 5 μm) was used to separate the peptide fragments using a binary solvent system consisting of solvent A (water, 0.05% formic acid) and solvent B (acetonitrile, 0.05% formic acid) operating at 0.7 mL/min. A 5 μl volume (˜4.5 μg) of each sample was injected at 10% solvent B, followed by a two-step gradient elution from 10 to 50% solvent B in 30 minutes, then 50 to 100% B in 10 minutes. The HPLC was coupled to an Advion CMS(L) single quadrupole mass detector through an electrospray ionization source. A line splitter from the HPLC to ESI source was used to deliver sample to the mass detector at 0.3 mL/min. An Advion expression-L CMS detector was used at low temperature and fragmentation settings: capillary temperature: 135° C., capillary voltage 120 V, source voltage offset 20 V, source gas temperature 135° C. and ESI voltage 3500 V. The range of ions detected was between 100 and 2,000 m/z.

[15] = Table 11, highest concentration 25 μg/mL

Substance | MIC (μg/mL) S. aureus (S. aureus ATCC 29213 [9]; Table 4) | MIC (μg/mL) M. luteus (M. luteus ATCC 4698) | inhibition of S. aureus, spot-on-lawn (S. aureus ATCC 29213 [13]) | MIC (μg/mL) M. haemolytica ([14]; Table 10, liquid broth) | MIC (μg/mL) S. aureus (S. aureus ATCC 29213 [9]; Table 10) | further results
TVGGLVKWILATVKKFA [STIP3-2, TVGGLVKWILATVKKFA] | 100 µg/mL | 3.13 µg/mL | observed to inhibit S. aureus | 50 µg/mL | – | α helicity (%) [1]: 50%; MIC C. albicans MYA-2876 (C. albicans MYA-2876): 100 µg/mL; MIC (μg/mL) Saccharomyces cerevisiae AR 400 [2]: 100 µg/mL; MIC (μg/mL) Candida krusei AR 397 (Candida krusei AR 397): 50 µg/mL; MIC (μg/mL) Saccharomyces cerevisiae AR 399 [3]: 50 µg/mL; MIC (μg/mL) Candida duobushaemulonii AR 392 [4]: > (MIC values reported at the top of the table (above the double line) are based on titrations from 1.56 to 100 μg/mL); MIC (μg/mL) Kodamae ohmeri AR 396 (Kodamae ohmeri AR 396): 100 µg/mL; MIC S. aureus ATCC BAA 2094 (V) [5]: 50 µg/mL; MIC S. aureus ATCC BAA 41 (II) [6]: 100 µg/mL; MIC S. aureus ATCC BAA 42 (VI) [7]: 50 µg/mL; MIC S. aureus ATCC BAA 1683 (IV) [8]: 50 µg/mL; MIC S. aureus ATCC 29213 (S. aureus ATCC 29213 [9]; Table 5, STIP3 variants, highest concentration 100 μg/mL): 100 µg/mL; MIC S. aureus ATCC BAA 2313 (XI) [10]: 50 µg/mL; MIC S. aureus ATCC BAA 44 (I) [11]: 100 µg/mL; MIC S. aureus ATCC 33592 (III) [12]: 50 µg/mL; MIC (μg/mL) M. haemolytica [14, 15]: 25 µg/mL
H-MTKDIVETVGGLVKWILDTVKKFA [δ-toxin (df), reference compound] | – | – | – | – | – | susceptibility to SspA cleavage (SspA protease): susceptible to SspA cleavage in vitro; α helicity (%) [1]: 87%; MIC C. albicans MYA-2876 (C. albicans MYA-2876): 100 µg/mL; MIC (μg/mL) Candida duobushaemulonii AR 392 [4]: > (MIC values reported at the top of the table (above the double line) are based on titrations from 1.56 to 100 μg/mL); MIC (μg/mL) Kodamae ohmeri AR 396 (Kodamae ohmeri AR 396): > (MIC values reported at the top of the table (above the double line) are based on titrations from 1.56 to 100 μg/mL); MIC (μg/mL) M. haemolytica [14, 15]: > (> symbol indicates that no inhibition was observed at the highest concentration of peptide tested: 25 μg/mL)
TVGGLVKWILDTVKAFA [K15A, TVGGLVKWILDTVKAFA] | >^b (> = >200 μg/mL (maximum concentration tested)) | 25 µg/mL | observed to inhibit S. aureus | 50 µg/mL | >^b (the use of > indicates an MIC > 200 μg/mL; the maximum concentration tested) | –
TVGGLVKWILDTVAKFA [K14A, TVGGLVKWILDTVAKFA] | >^b (> = >200 μg/mL (maximum concentration tested)) | 12.5 µg/mL | observed to inhibit S. aureus | 100 µg/mL | >^b (the use of > indicates an MIC > 200 μg/mL; the maximum concentration tested) | –
AVGGLVKWILDTVKKFA [T1A, AVGGLVKWILDTVKKFA] | 200 µg/mL | 12.5 µg/mL | observed to inhibit S. aureus | 50 µg/mL | – | –
TVGGLVKWILDAVKKFA [T12A, TVGGLVKWILDAVKKFA] | 100 µg/mL | 12.5 µg/mL | observed to inhibit S. aureus | 50 µg/mL | – | –
TVGALVKWILDTVKKFA [G4A, TVGALVKWILDTVKKFA] | >^b (> = >200 μg/mL (maximum concentration tested)) | 12.5 µg/mL | observed to inhibit S. aureus | 50 µg/mL | >^b (the use of > indicates an MIC > 200 μg/mL; the maximum concentration tested) | –
